US20200230207A1, “TREATMENT OF BONE GROWTH DISORDERS” (FONDAZIONE TELETHON, priority 2015, published 2020)
Square brackets hold non-standard residues; d marks the D form. Ends that are not written are not given here. Peptide text beside a SMILES is read from it. * marks the point of attachment. Cbz = O=C(OCc1ccccc1)*

What was measured:
Rx chondrocytes [1] = test: Procollagen (PC2) secretion and trafficking in Rx chondrocytes; assay type: cell-based, rat
Procedure: FIG. 6: a, b, Quantification of secreted PC2 in control and Spautin-1-treated (24 h, 50 μM) (a) and Atg7-knockdown (KD; b) RCS chondrocytes after ER block release of PC2 (min). Ctrl, control. Mean values (±standard deviation (s.d.)) of 3 independent experiments. ANOVA, P=5.29×10^−5 (a), P=0.007 (b); Sidak post-hoc test, […], ***P<0.0005. c, PC2 localization in Golgi area and ER (HSP47) in vehicle and Spautin-1-treated (24 h, 50 μM) RCS chondrocytes 10 min after the ER block release of PC2. Bar graph represents the percentage (±s.d.) of cells containing PC2 in the indicated cellular compartment. N=60; n=3 independent experiments. Student's t-test, **P<0.005. Scale bar, 10 μm. d, Immunofluorescence of PC2, Sec31 and GFP-LC3 in RCS chondrocytes. The insets show higher magnification and single colour channels of the boxed area. N, nucleus. The data are representative of 5 independent experiments. Scale bar, 5 μm. e, Spinning-disk confocal image of RCS chondrocytes co-expressing GFP-LC3- and mCherry-PC2-tagged proteins. Arrows show PC2 molecules sequestered by GFP vesicles. The data are representative of 3 independent experiments. Scale bar, 10 μm. f, Time-lapse stills of PC2 and LC3 from the boxed region in e.
The insets show a high magnification of selected areas. […] The insets show a high magnification of selected areas. Red=collagen; Blue=DAPI. Scale bar 10 μm.
FIG. 14: a a, Immunofluorescence staining of HSP47 chaperone (red) in Atg7^fl/fl and Atg7^fl/fl; Prx1-Cre chondrocytes, showing altered HSP47 distribution in Prx1-Cre; Atg7^fl/fl chondrocytes. The data are representative of 3 independent experiments. Insets show a higher magnification of the boxed area. Scale bar, 10 μm. Blue, DAPI. b, Co-localization of PC2 with HSP47 in growth-plate chondrocytes of mice with indicated genotypes. The data are representative of 3 independent experiments. Scale bar, 20 μm. c, Altered HSP47 and PC2 trafficking in Spautin-1-treated chondrocytes. HSP47 and PC2 immunostaining in control (vehicle) or Spautin-1-treated RCS chondrocytes. Synchronized PC2 secretion was obtained after incubating chondrocytes for 3 h at 40° C. to block PC2 in the ER, and then shifting the temperature to 32° C. (ER block release) for 10 min. The data are representative of 2 independent experiments. Scale bar, 10 μm. d, Proposed model of autophagy function in chondrocytes. Autophagy in chondrocytes prevents PC2 aggregation and maintains ER homeostasis during the process of PC2 secretion. e, Confocal analysis of GFP-LAMP1 (green) and mCherry-PC2 (red) in vehicle- and Spautin-1-treated chondrocytes at the indicated time points (min) after the ER block release. The insets show a high magnification of the selected area. Scale bar, 5 μm. f, Quantification of GFP-LAMP1/mCherry-PC2 co-localization. Values represent mean±s.d. from three independent experiments. N=30. […] The data are representative of 2 independent experiments. Scale bar, 10 μm.
Live cell imaging: Rx chondrocytes were reverse transfected and plated in Mattek glass bottomed dishes. Collagen transport assays were performed by incubating cells at 40° C. on the heated stage for 2.5 h. Collagen release was initiated by lowering the temperature of the stage to 32° C. and medium being supplemented with 50 μg/ml ascorbate.
Procollagen secretion assay: To follow PC2 secretion in Rx chondrocytes, cells were pretreated ON with ascorbate (100 μg/ml) in DMEM without FCS. […]

[2] = tested on: primary chondrocytes isolated from GFP-LC3 mice; test: High content GFP-LC3 vesicle count in primary chondrocytes; assay type: cell-based, mouse; details: in the presence of BafA1, 25 ng/ml for 24 h
Procedure: (§1) FIG. 15: a, Representative images of high content imaging analysis of primary chondrocytes isolated from GFP-LC3 transgenic mice and treated with vehicle or FGF18 (25 ng /ml for 24 h). BafA1 was used where indicated for 4 h (200 nM). Green spots represent GFP labeled AVs. Scale bar 50 μm. b, Quantification of green vesicles (AVs) in cells treated with the indicated factors for 24h. Vesicles were counted in at least 1000 cells/treatment. […] Bar graphs show % of red vesicles (autolysosomes) and of total vesicles relative to vehicle (Values represent mean values±s.d. At least 10 cells/experiment were analyzed from 3 independent experiments. *p<0.05 ***p<0.0005. Student's t-test). […] Quantification of data (mean±s.e.m of n=5 mice/group. *p<0.05, Student's t-test) f, Western blot analysis of Fgf18+/+ and Fgf18+/− growth plate lysates. […]
High content screening analysis in GFP-LC3 primary chondrocytes: Primary chondrocytes were plated in CellCarrier-96 Black plates (6005558, Perkin Elmer). […] To carry out the analysis the number of cytoplasmic GFP-LC3 spots in the cytoplasm of Col2 positive cells were counted, and expressed per cell. Levels of colocalization between GFP-LC3 and Col2a1 were assessed and expressed as %, using the parameters: area of colocalization of red spots with area of green spots normalized to total area of green spots. […]

VPS34-Beclin 1 complex = test: Bcl2 phosphorylation, Beclin 1 co-immunoprecipitation and PI3K assay in Rx chondrocytes; assay type: cell-based, rat; details: 25 ng/ml
[3] = tested on: rat model of osteoarthritis; details: intra articular injection; cited from earlier work
Rx chondrocytes [4] = test: Tandem mRFP-EGFP-LC3 autophagic flux in Rx chondrocytes; assay type: cell-based, rat; details: 25 ng/ml for 24 h
Procedure: as §1, with “cells/treatment. Values represent mean values±s.d. of n=3 independent experiments; Statistical analysis was performed using repeated measure ANOVA with TUKEYs post-hoc test. **p<0.005. c, Western blot analysis of primary chondrocytes isolated from wild type mice treated as indicated (FGF18 25 ng/ml, 24 h). Where indicated BafA1 was added (200 nM, 4h).” for “cells/treatment.”

GusbKO chondrocytes = test: Protein degradation and mTORC1 signaling in GusbKO RCS chondrocytes with Mg132; assay type: cell-based, rat
Procedure: FIG. 23: G, WT and GusbKO RCS cells were pulse labelled for 18h with ^3H-Ser and chased for 48h in medium containing vehicle or 100 nM Mg-132. The rate of protein degradation is shown as the fraction of radiolabelled protein remaining over time. Values are expressed as mean (±s.e.m.) of n=3 independent experiments (Student's t-test, * p<0.05, ** p<0.005). H, Luminescent signal resulting from the cleavage of a luminescent Suc-LLVY peptide by the chymotrypsin-like activity of the proteasome was measured in WT and GusbKO RCS cells after 6h treatment with aminoacids. Data are representative of 3 independent experiments and are graphed as relative fluorescence units (RFU) (Student's t-test, * p<0.05). I, Western blot analysis of mTORC1 signaling in WT and GusbKO RCS cells treated with Mg-132 (10 μM) or DMSO (−) for 6h. Arrowheads indicate specific band. J, Bar graphs displaying quantification of relative phosphorylation. Values are expressed as mean (±s.e.m.) of n=3 independent experiments (Student's t-test, * p<0.05, ** p<0.005).

MPSVI mice = test: Femur and tibia lengths in MPSVI mice; assay type: in vivo, mouse; details: 2 mg/kg i.p. daily for 15 days, P15
Procedure: (§2) Control mice were injected with vehicle only. Mice were sacrificed after 15 (P15) and 30 (P30) days.
(§3) Skeletal staining: Skeletons were fixed in 95% ethanol overnight (ON) and stained with alcian blue and alizarin red according to standardized protocols (http://empress.har.mrc.ac.uk/browser/). Three to five mice of each genotype were analyzed per stage. Measurement of bone length was performed using ImageJ software.

MPSVII mice [5] = test: Femur and tibia lengths in MPSVII mice; assay type: in vivo, mouse; details: 2 mg/kg i.p. daily, P15 and P30
Procedure: as §2, §3

MPSVII mice [6] = test: Growth plate histology, BrDU index and collagen in MPSVII mice; assay type: in vivo, mouse; details: 2 mg/kg i.p. daily, P15
[7] = tested on: FGFR3ach and FGFR3TD chondrocytes; test: LC3II in FGFR3 WT, FGFR3ach and FGFR3TD chondrocytes with lysosomal inhibitors; assay type: cell-based, rat; details: leupeptin 50 μM 2 h; bafilomycin 200 nM 4 h
Procedure: Bars graphs represent LC3II quantification relative to β-actin. […] Graphs show representative histograms.
Leupeptin and bafilomycin treatments: Leupeptin (Sigma) was resuspended in water at 10 mM. FGFR3 wild type, FGFR3ach and FGFR3TD stable chondrocytes cell line were treated with 50 μM leupeptin for 2 h at 37° C. Bafilomycin (Millipore) was resuspended in DMSO at 200 μM. FGFR3 wild type, FGFR3 ach and FGFR3TD stable chondrocytes cell line were treated with 200 nM bafilomycin for 4 h at 37° C.

[8] = tested on: growth plate chondrocytes; test: LC3II in femoral growth plates after leupeptin injection; assay type: in vivo, mouse
Procedure: FIG. 9: a, Comparative TEM images of P0 and P6 wild type growth plate chondrocytes showing increased autophagosomes (AV) biogenesis at P6. Arrows indicate AVs. Bar graphs show number and size of AVs within 5.3 μm field of view (values represent mean±s.e.m. Student's t-test **p<0.005). b, Western blot analysis of LC3I/II of femoral growth plates from mice at indicated ages. Mice were injected with leupeptin (40 mg/kg i.p. 6h before sacrifice) where indicated. β-actin was used as loading control. Bar graphs show quantification of LC3II protein relative to β-actin (mean±s.e.m. *p<0.05 Student's t-test. n=3/group). c, Representative Western blot analysis of Atg7, LC3 and SQSTM1 (p62) proteins in Atg7 f/f, Col2a1-Cre; Atg7 f/f and Prx1-Cre; Atg7 f/f growth plate lysates. […]
FIG. 15: a, Representative images of high content imaging analysis of primary chondrocytes isolated from GFP-LC3 transgenic mice and treated with vehicle or FGF18 (25 ng /ml for 24 h). […] Scale bar 50 μm. b, Quantification of green vesicles (AVs) in cells treated with the indicated factors for 24h. Vesicles were counted in at least 1000 cells/treatment. […] Bar graphs show % of red vesicles (autolysosomes) and of total vesicles relative to vehicle (Values represent mean values±s.d. At least 10 cells/experiment were analyzed from 3 independent experiments. *p<0.05 ***p<0.0005. Student's t-test). […]

[9] = synchronized PC2 secretion, 24 h, 50 μM

Fc1ccc(CNc2ncnc3ccc(F)cc23)cc1 [Spautin-1]
FGF18-induced increase of PC2 secretion (Rx chondrocytes [1]; Spautin-1 24h added to FGF18-stimulated cells): hampered this increase
ER to cis-Golgi trafficking of HSP47 (Rx chondrocytes [1]; cultured chondrocytes): inhibited
PC2 localization in the ER (Rx chondrocytes [1]; [9]): retention of PC2 in the ER
PC2 secretion (Rx chondrocytes [1]; [9]): defective PC2 secretion

FGF18: fibroblast growth factor 18 (Peprotech)
AV number (autophagosome biogenesis) [2]: increase significantly
efficiency of PC2 secretion compared to non-stimulated cells (Rx chondrocytes [1]; FGF18 25 ng/ml): higher efficiency
interaction of Beclin 1-Bcl2 (VPS34-Beclin 1 complex; 2h): decreased
VPS34-Beclin 1 complex activity (PI3P levels produced) (VPS34-Beclin 1 complex; 2 h, JNK dependent): increases
phosphorylation of Bcl-2 (VPS34-Beclin 1 complex; 2h, JNK-dependent): increases
repair of damaged cartilage [3]: can stimulate the repair of damaged cartilage
autophagic flux (autolysosome number) (Rx chondrocytes [4]): enhanced

CC(C)C[C@@H](C=O)NC(=O)[C@H](CC(C)C)NC(=O)[C@H](CC(C)C)NC(=O)OCc1ccccc1 [Mg132] (Cbz-Leu-Leu-Leu-aldehyde)
increased protein degradation rate of GusbKO chondrocytes (GusbKO chondrocytes; 100 nM, 48h chase): completely blunted
mTORC1 signaling (GusbKO chondrocytes; 10 μM, 6h): normalized

RRRQRRKKRGYGGTGFEGDHWIEFTANFVNT ([dR][dR][dR][dQ][dR][dR][dK][dK][dR]G[dY]GG[dT]G[dF][dE]G[dD][dH][dW][dI][dE][dF][dT][dA][dN][dF][dV][dN][dT]; also: retro-inverso)
femoral and tibial growth retardation (MPSVI mice): rescues
femoral and tibial growth retardation (MPSVII mice [5]): rescues
collagen levels in femoral and tibia cartilages (MPSVII mice [6]): normalizes
growth plate differentiation and proliferation defects (MPSVII mice [6]): normalizes

bafilomycin
level of LC3II protein compared to FGFR3 wild type stable cells [7]: did not increase

CC(=O)N[C@@H](CC(C)C)C(=O)N[C@@H](CC(C)C)C(=O)N[C@H](C=O)CCCNC(=N)N [Leupeptin]
LC3II levels in the growth plate of wild type mice ([8]; 40 mg/kg i.p. 6h before sacrifice, P2 and P6): further increased the levels of LC3II in the growth plate of P6 but not P2 mice
LC3II levels in the growth plate of control and Fgf18+/- mice ([8]; 40 mg/kg i.p. 6 h before sacrifice, P6): significantly increased LC3II levels in the growth plate of P6 control but not in Fgfl 8 mice
level of LC3II protein compared to FGFR3 wild type stable cells [7]: did not increase
